Holding throughout (type): cell-based
For assay [1], the target named is T1, D3 DAR (Homo sapiens, UniProt P35462). The experiment in a line: Go BRET activation assay, D3 DAR. As to conditions: EC80 DA (30 nM); for Emax: 5 min, read-out: D3 Go BRET Imax. On the procedure:
Briefly, HEK293T cells transiently expressing either the D2 DAR or D3 DAR and GαoA-Rluc8, untagged-β1, and mVenus-γ2 were harvested with EBSS, plated in 96-well white plates at 20,000 cells/well in DPBS and incubated at RT for 45 min. […] BRET signal was determined by quantifying and calculating the ratio of the light emitted by mVenus (525 nm) over that emitted by RLuc8 (485 nm) using a PHERAstar FSX Microplate Reader (BMG Labtech).
For orientation: BRET reads energy transfer from a luciferase to a nearby fluorophore.

Assay [2] addresses T1, D3 DAR. The experiment in a line: DiscoverX D3 DAR β-arrestin recruitment assay. As to conditions: for IC50: EC80 concentration of DA (30 nM), read-out: D3 DAR IC50; for D3 DAR Imax / Emax: Imax=maximum inhibition, EC80 DA (30 nM). Also noted: host or cells: CHO. An excerpt: A D3 DAR β-arrestin cell line from DiscoverX (Fremont, CA) was used as described in the protocol below (Table 2). A CHO cell line engineered to overexpress the D3 DAR fused with a small 42-amino acid fragment of β-galactosidase called ProLink™ and a fusion protein consisting of β-arrestin and a larger N-terminal deletion mutant of β-galactosidase was used (DiscoverX catalogue number 93-0579C2). When the D3 DAR is activated by dopamine, it stimulates binding of β-arrestin to ProLink-tagged D3 DARs, and the two complementary parts of β-galactosidase form a functional enzyme. When substrate (PathHunter® Detection reagent, DiscoverX 93-0001) is added, β-galactosidase hydrolyzes it and generates a chemiluminescent signal.
(Recruitment of arrestin is a read-out of receptor activation apart from second messengers.)

For the next assay, the target named is D2 DAR (Homo sapiens, UniProt P14416). The assay is described as follows: DiscoverX D2 DAR β-arrestin recruitment assay. Also on record: host or cells: CHO. As to conditions: EC80 concentration of DA (1 μM). The source says:
For a secondary-screen and selectivity assays, DAR PathHunter®-arrestin GPCR cell lines from DiscoverX (Fremont, CA) were used. In the D2 DAR PathHunter®-arrestin GPCR cell line, the D2 DAR is overexpressed and fused with a small 42-amino acid fragment of β-galactosidase called ProLink™ on a CHO cellular background expressing a fusion protein of β-arrestin and a larger N-terminal deletion mutant of β-galactosidase (“enzyme acceptor”). When the D2 DAR is activated by dopamine, it stimulates binding of β-arrestin to the ProLink-tagged DAR and the two complementary parts of β-galactosidase form a functional enzyme. When substrate (PathHunter™ Detection reagent) is added, β-galactosidase hydrolyzes it and generates a chemiluminescent signal.

The term IC50 denotes the midpoint of a concentration-inhibition curve.

T1 sequence (P35462 whole entry): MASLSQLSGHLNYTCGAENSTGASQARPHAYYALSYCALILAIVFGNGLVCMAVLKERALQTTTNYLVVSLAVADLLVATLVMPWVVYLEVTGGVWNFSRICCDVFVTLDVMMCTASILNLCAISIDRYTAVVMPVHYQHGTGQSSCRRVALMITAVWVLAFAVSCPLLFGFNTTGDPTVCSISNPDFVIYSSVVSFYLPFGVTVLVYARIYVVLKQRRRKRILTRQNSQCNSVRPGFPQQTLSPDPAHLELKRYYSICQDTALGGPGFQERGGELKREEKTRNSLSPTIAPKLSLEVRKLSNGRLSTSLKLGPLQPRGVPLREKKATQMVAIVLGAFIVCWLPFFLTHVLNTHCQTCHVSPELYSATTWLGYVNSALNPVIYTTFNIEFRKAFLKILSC
D2 DAR, sequence (P14416 whole entry, the tested form may be a part): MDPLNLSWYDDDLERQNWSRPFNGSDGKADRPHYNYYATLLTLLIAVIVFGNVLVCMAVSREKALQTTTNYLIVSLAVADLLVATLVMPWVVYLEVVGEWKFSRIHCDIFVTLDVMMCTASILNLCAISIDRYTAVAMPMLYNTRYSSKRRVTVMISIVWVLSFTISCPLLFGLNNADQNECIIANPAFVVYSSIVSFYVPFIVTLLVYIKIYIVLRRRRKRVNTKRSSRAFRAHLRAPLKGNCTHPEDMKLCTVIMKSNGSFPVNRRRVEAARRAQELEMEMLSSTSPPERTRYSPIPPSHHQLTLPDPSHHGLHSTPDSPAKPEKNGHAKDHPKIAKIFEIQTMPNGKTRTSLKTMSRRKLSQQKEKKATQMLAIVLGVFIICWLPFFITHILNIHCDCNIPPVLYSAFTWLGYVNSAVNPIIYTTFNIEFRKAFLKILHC

For the compound `Cc1ccc(CNS(=O)(=O)c2c(C)[nH]c(C)c2C(=O)N2CCCC2)cc1Cl` [compound 9], on D3 DAR [1], the “D3 Go BRET Imax” value was “NA (NA means not active)” and the IC50 was greater than 50 µM. Also, on D3 DAR [2], the IC50 was in the range of 50 to 100 µM and the “D3 DAR Imax” value was “Curve Incomplete”. Moreover, at D2 DAR, the “D2 DAR Imax” value is reported as “NA (“NA” indicates not active)” and the half-inhibitory concentration (IC50) is greater than 100 µM.

Regarding “N-(3-chloro-4-(trifluoromethyl)phenyl)-2,5-dimethyl-4-(morpholine-4-carbonyl)-1H-pyrrole-3-sulfonamide [compound 30]”, at D3 DAR [2], the IC50 is greater than 100 µM and the “D3 DAR Imax” value is “Curve Incomplete”. Further, at D2 DAR, the “D2 DAR Imax” value is on record as “NA (“NA” indicates not active)” and the 50% inhibitory concentration (IC50) was greater than 100 µM.

For the compound `Cc1[nH]c(C)c(S(=O)(=O)Nc2ccc(F)cc2)c1C(=O)N1CCCC1` [compound 32], at D3 DAR [1], the Emax is greater than 100% and the half-inhibitory concentration (IC50) was 1 to 10 µM. Moreover, on D3 DAR [2], the IC50 was greater than 100 µM and the “D3 DAR Imax” value was “Curve Incomplete”. On D2 DAR, the “D2 DAR Imax” value is reported as “NA (“NA” indicates not active)” and the IC50 is greater than 100 µM.

Consider `Cc1[nH]c(C)c(S(=O)(=O)Nc2ccc(C(F)(F)F)c(Cl)c2)c1C(=O)N1CCNCC1.Cl` [compound 20, N-(3-chloro-4-(trifluoromethyl)phenyl)-2,5-dimethyl-4-(piperazine-1-carbonyl)-1H-pyrrole-3-sulfonamide], for which the 50% inhibitory concentration (IC50) at D3 DAR [1] was greater than 50 µM. Also, on D3 DAR [2], the IC50 was in the range of 50 to 100 µM and the “D3 DAR Imax” value was “Curve Incomplete”. For the same compound, on D2 DAR, the “D2 DAR Imax” value was “NA (“NA” indicates not active)” and the half-maximal inhibitory concentration (IC50) was greater than 100 µM.

For the compound `Cc1ccc(NS(=O)(=O)c2c(C)[nH]c(C)c2C(=O)N2CCCC2)cc1F` [compound 16], on D3 DAR [1], the Emax was greater than 100% and the half-inhibitory concentration (IC50) is 10 to 50 µM. Moreover, at D3 DAR [2], the 50% inhibitory concentration (IC50) was in the range of 10 to 50 µM and the Emax was 80 to 100%. In addition, on D2 DAR, the “D2 DAR Imax” value is given as “NA (“NA” indicates not active)” and the IC50 was greater than 100 µM.

With `Cc1ccc(NS(=O)(=O)c2c(C)[nH]c(C)c2C(=O)N2CCC2)cc1Cl` [compound 6], the Emax at D3 DAR [1] was greater than 100%; on D3 DAR [2] it was 80 to 100%. For the same compound, the values for the IC50 against D3 DAR [1], on D3 DAR [2] and on D2 DAR were 10 to 50 µM, 10 to 50 µM and greater than 100 µM, respectively. In addition, at D2 DAR, the “D2 DAR Imax” value is “NA (“NA” indicates not active)”.

Turning to `Cc1[nH]c(C)c(S(=O)(=O)Nc2ccc(S(F)(F)(F)(F)F)cc2)c1C(=O)N1CCC(F)(F)C1` [compound 28], at D3 DAR [1], the Emax was in the range of 80 to 100% and the half-inhibitory concentration (IC50) lay in the range of 1 to 10 µM. At D3 DAR [2], the half-inhibitory concentration (IC50) was less than 10 µM and the Emax fell in the range of 80 to 100%. At D2 DAR, the “D2 DAR Imax” value is on record as “NA (“NA” indicates not active)” and the IC50 was greater than 100 µM.

For `Cc1[nH]c(C)c(S(=O)(=O)Nc2ccc(C(C)C)cc2)c1C(=O)N1CCCC1` [compound 4], at D3 DAR [1], the Emax was greater than 100% and the concentration for half-maximal inhibition (IC50) was in the range of 1 to 10 µM. Also, at D3 DAR [2], the 50% inhibitory concentration (IC50) was in the range of 10 to 50 µM and the Emax fell in the range of 80 to 100%. Moreover, on D2 DAR, the “D2 DAR Imax” value is “NA (“NA” indicates not active)” and the IC50 was greater than 100 µM.

For the compound `Cc1[nH]c(C)c(S(=O)(=O)Nc2cc(Cl)cc(C(F)(F)F)c2)c1C(=O)N1CCC(F)(F)C1` [compound 40, N-(3-chloro-5-(trifluoromethyl)phenyl)-4-(3,3-difluoropyrrolidine-1-carbonyl)-2,5-dimethyl-1H-pyrrole-3-sulfonamide], at D3 DAR [1], the Emax is greater than 100% and the IC50 lay in the range of 10 to 50 µM. Further, on D3 DAR [2], the half-inhibitory concentration (IC50) is 10 to 50 µM and the Emax was 80 to 100%. On D2 DAR, the “D2 DAR Imax” value is reported as “NA (“NA” indicates not active)” and the IC50 was greater than 100 µM.

Regarding `Cc1ccc(NS(=O)(=O)c2c(C)[nH]c(C(F)(F)F)c2C(=O)N2CCCC2)cc1Cl` [compound 38], at D3 DAR [1], the Emax was greater than 100% and the IC50 was 1 to 10 µM. Also, on D3 DAR [2], the IC50 is less than 10 µM and the Emax was in the range of 80 to 100%. Also, at D2 DAR, the “D2 DAR Imax” value was “NA (“NA” indicates not active)” and the 50% inhibitory concentration (IC50) was greater than 100 µM.

On to `Cc1ccc(NS(=O)(=O)c2c(C)[nH]c(C)c2C(=O)N2CCCC2)cc1C` [compound 12], for which the 50% inhibitory concentration (IC50) at D3 DAR [1] was greater than 50 µM. For the same compound, at D3 DAR [2], the IC50 was 10 to 50 µM and the Emax was in the range of 80 to 100%. Also, on D2 DAR, the “D2 DAR Imax” value is recorded as “NA (“NA” indicates not active)” and the concentration for half-maximal inhibition (IC50) was greater than 100 µM.

Turning to `Cc1[nH]c(C)c(S(=O)(=O)Nc2cc(Cl)c(C(F)(F)F)cc2Br)c1C(=O)N1CCC(F)(F)C1` [compound 41, N-(2-bromo-5-chloro-4-(trifluoromethyl)phenyl)-4-(3,3-difluoropyrrolidine-1-carbonyl)-2,5-dimethyl-1H-pyrrole-3-sulfonamide], on D3 DAR [2], the 50% inhibitory concentration (IC50) is less than 10 µM and the Emax is 80 to 100%. Besides, on D2 DAR, the “D2 DAR Imax” value is “NA (“NA” indicates not active)” and the concentration for half-maximal inhibition (IC50) is greater than 100 µM.

Turning to `CCN(C)C(=O)c1c(C)[nH]c(C)c1S(=O)(=O)Nc1ccc(C(F)(F)F)c(Cl)c1` [compound 29], on D3 DAR [1], the Emax is greater than 100% and the IC50 was in the range of 10 to 50 µM. At D3 DAR [2], the concentration for half-maximal inhibition (IC50) lay within 10 to 50 µM and the Emax lay in the range of 80 to 100%. On D2 DAR, the “D2 DAR Imax” value is listed as “NA (“NA” indicates not active)” and the IC50 was greater than 100 µM.

`Cc1[nH]c(C)c(S(=O)(=O)Nc2ccc(F)c(Cl)c2)c1C(=O)N1CCCC1` [compound 13]: the Emax at D3 DAR [1] was greater than 100%; on D3 DAR [2], 80 to 100%. The half-inhibitory concentration (IC50) against D3 DAR [1] was 10 to 50 µM; at D3 DAR [2], 10 to 50 µM; on D2 DAR, greater than 100 µM. The “D2 DAR Imax” value on D2 DAR is recorded as “NA (“NA” indicates not active)”.

`Cc1ccc(NS(=O)(=O)c2c(C)[nH]c(C)c2C(=O)N2CCCC2)cc1` [compound 10]: the half-maximal inhibitory concentration (IC50) at D3 DAR [1] was greater than 50 µM. Further, at D3 DAR [2], the IC50 lay within 10 to 50 µM and the Emax is 80 to 100%. Besides, on D2 DAR, the “D2 DAR Imax” value is on record as “NA (“NA” indicates not active)” and the IC50 was greater than 100 µM.

As for `CCNC(=O)c1c(C)[nH]c(C)c1S(=O)(=O)Nc1ccc(C(F)(F)F)c(Cl)c1` [compound 33, 4-(N-(3-chloro-4-(trifluoromethyl)phenyl)sulfamoyl)-N-ethyl-2,5-dimethyl-1H-pyrrole-3-carboxamide], at D3 DAR [1], the Emax is greater than 100% and the IC50 was in the range of 10 to 50 µM. On D3 DAR [2], the 50% inhibitory concentration (IC50) is less than 10 µM and the Emax fell in the range of 80 to 100%. For the same compound, at D2 DAR, the “D2 DAR Imax” value was “NA (“NA” indicates not active)” and the IC50 was greater than 100 µM.

As to `Cc1[nH]c(C)c(S(=O)(=O)Nc2ccc(C(F)(F)F)c(Cl)c2)c1C(=O)N1CC(F)(F)C(F)(F)C1` [compound 27, N-(3-chloro-4-(trifluoromethyl)phenyl)-2,5-dimethyl-4-(3,3,4,4-tetrafluoropyrrolidine-1-carbonyl)-1H-pyrrole-3-sulfonamide], at D3 DAR [1], the Emax was greater than 100% and the IC50 was in the range of 1 to 10 µM. Further, on D3 DAR [2], the IC50 is 10 to 50 µM and the Emax lay within 80 to 100%. At D2 DAR, the “D2 DAR Imax” value is given as “NA (“NA” indicates not active)” and the 50% inhibitory concentration (IC50) was greater than 100 µM.

In the case of `Cc1[nH]c(C)c(S(=O)(=O)Nc2ccc(C(F)(F)F)c(Cl)c2)c1C(=O)O` [compound 22, 4-(N-(3-chloro-4-(trifluoromethyl)phenyl)sulfamoyl)-2,5-dimethyl-1H-pyrrole-3-carboxylic acid], at D3 DAR [1], the Emax was greater than 100% and the half-maximal inhibitory concentration (IC50) lay within 10 to 50 µM. Also, at D3 DAR [2], the half-inhibitory concentration (IC50) lay in the range of 50 to 100 µM and the “D3 DAR Imax” value is recorded as “Curve Incomplete”. Also, on D2 DAR, the “D2 DAR Imax” value is given as “NA (“NA” indicates not active)” and the IC50 is greater than 100 µM.

Consider `Cc1ccc(NS(=O)(=O)c2c(C)[nH]c(C)c2C(=O)N2CCCCC2)cc1Cl` [compound 11], for which the figures for the Emax on D3 DAR [1] and on D3 DAR [2] were greater than 100% and 80 to 100%, respectively. The IC50 against D3 DAR [1] was 10 to 50 µM; on D3 DAR [2], 10 to 50 µM; at D2 DAR, greater than 100 µM. Besides, the “D2 DAR Imax” value at D2 DAR is given as “NA (“NA” indicates not active)”.

With `CCc1ccc(NS(=O)(=O)c2c(C)[nH]c(C)c2C(=O)N2CCCC2)cc1` [compound 15], the Emax on D3 DAR [1] and at D3 DAR [2] was 80 to 100% each time. Moreover, the results for the half-inhibitory concentration (IC50) on D3 DAR [1], at D3 DAR [2] and against D2 DAR were 10 to 50 µM, less than 10 µM and greater than 100 µM, respectively. Further, the “D2 DAR Imax” value on D2 DAR is reported as “NA (“NA” indicates not active)”.

`CCOC(=O)C1=NOC2(C1)C(=O)Nc1ccc(OC(F)(F)F)cc12` (stereo not drawn) [compound 45]: on D3 DAR [2], the IC50 is 10 to 50 µM and the “D3 DAR Imax” value was “+ (A “+” is used to denote compounds with D3 DAR Imax (Imax=maximum inhibition) between 80% to 100%)”. In addition, on D2 DAR, the “D2 DAR Imax” value was “NA (“NA” indicates not active)” and the half-maximal inhibitory concentration (IC50) was greater than 100 µM.
